Experimental data reported in ChEMBL document CHEMBL2029218, “Structure-based design of novel class II c-Met inhibitors: 2. SAR and kinase selectivity profiles of the pyrazolone series” (J Med Chem, 2012).

How the values were obtained:
[1] = biological target: Insulin-like growth factor 1 receptor (Homo sapiens, UniProt P08069); assay: Inhibition of IGF1R by HTRF assay
[2] = biological target: Vascular endothelial growth factor receptor 2 (Homo sapiens, UniProt P35968); assay: Inhibition of VEGFR2 by HTRF assay
[3] = biological target: Ribosomal protein S6 kinase beta-1 (Homo sapiens, UniProt P23443); assay: Inhibition of p70S6K
[4] = biological target: Ribosomal protein S6 kinase alpha-5 (Homo sapiens, UniProt O75582); assay: Inhibition of MSK1
[5] = biological target: Macrophage-stimulating protein receptor (Homo sapiens, UniProt Q04912); assay: Inhibition of RON by HTRF assay
[6] = biological target: Mast/stem cell growth factor receptor Kit (Homo sapiens, UniProt P10721); assay: Inhibition of c-KIT
[7] = biological target: Mitogen-activated protein kinase 3 (Homo sapiens, UniProt P27361); assay: Inhibition of ERK1
[8] = biological target: Hepatocyte growth factor receptor (Homo sapiens, UniProt P08581)
Description: Inhibition of c-Met by HTRF assay

[9] = biological target: Cyclin-dependent kinase 5/CDK5 activator 1 (Homo sapiens, UniProt Q00535)
[10] = biological target: RAC-beta serine/threonine-protein kinase (Homo sapiens, UniProt P31751); assay: Inhibition of PKBbeta
[11] = biological target: Mitogen-activated protein kinase 9 (Homo sapiens, UniProt P45984); assay: Inhibition of JNK2
[12] = biological target: Mitogen-activated protein kinase 14 (Homo sapiens, UniProt Q16539); assay: Inhibition of p38alpha
[13] = biological target: cAMP-dependent protein kinase catalytic subunit alpha (Homo sapiens, UniProt P17612); assay: Inhibition of PKAalpha
[14] = biological target: Proto-oncogene tyrosine-protein kinase receptor Ret (Homo sapiens, UniProt P07949); assay: Inhibition of RET
[15] = biological target: Serine/threonine-protein kinase pim-2 (Homo sapiens, UniProt Q9P1W9); assay: Inhibition of PIM2
[16] = biological target: Tyrosine-protein kinase JAK1 (Homo sapiens, UniProt P23458); assay: Inhibition of JAK1
[17] = biological target: RAC-alpha serine/threonine-protein kinase (Homo sapiens, UniProt P31749); assay: Inhibition of PKBalpha
[18] = biological target: Fibroblast growth factor receptor 1 (Homo sapiens, UniProt P11362); assay: Inhibition of FGFRK
[19] = biological target: Tyrosine-protein kinase JAK2 (Homo sapiens, UniProt O60674); assay: Inhibition of JAK2
[20] = biological target: Serine/threonine-protein kinase pim-1 (Homo sapiens, UniProt P11309); assay: Inhibition of PIM1

Row | Structure (SMILES) | Ki [1] [nM] | other results
1 | COc1ccc2c(Oc3ccc(NC(=O)c4c(-c5cnccn5)n(C)n(-c5ccccc5)c4=O)nc3)ccnc2c1 | 87.7 | Ki [2]: 4730 nM
2 | COc1ccc2c(Oc3ccc(NC(=O)c4c(-c5cc(C)on5)n(C)n(-c5ccccc5)c4=O)nc3)ccnc2c1 | 30.9 | Ki [2]: 501 nM
3 | COc1ccc2c(Oc3ccc(NC(=O)c4c(-c5csc(C)n5)n(C)n(-c5ccccc5)c4=O)nc3)ccnc2c1 | 24.8 | Ki [2]: 588 nM
4 | CCn1c(C)c(C(=O)Nc2ccc(Oc3ccnc4cc(OC)ccc34)cn2)c(=O)n1-c1ccccc1 | 708 | 
5 | CCCn1c(C)c(C(=O)Nc2ccc(Oc3ccnc4cc(OC)ccc34)cn2)c(=O)n1-c1ccccc1 | 730 | 
6 | COc1ccc2c(Oc3ccc(NC(=O)c4c(C)n(CCN)n(-c5ccccc5)c4=O)cc3F)ccnc2c1 | 872 | 
7 | COc1ccc2c(Oc3ccc(NC(=O)c4c(C)n(CCO)n(-c5ccccc5)c4=O)nc3)ccnc2c1 | 1100 | 
8 | COCCn1c(C)c(C(=O)Nc2ccc(Oc3ccnc4cc(OC)ccc34)cn2)c(=O)n1-c1ccccc1 | 2890 | 
9 | COc1ccc2c(Oc3ccc(NC(=O)c4c(C)n(CC(C)O)n(-c5ccccc5)c4=O)nc3)ccnc2c1 (stereo unspecified) | 1290 | 
10 | COc1ccc2c(Oc3ccc(NC(=O)c4c(C)n(CC5CNC(=O)O5)n(-c5ccccc5)c4=O)cc3F)ccnc2c1 (stereo unspecified) | 1660 | 
11 | COc1ccc2c(Oc3ccc(NC(=O)c4c(C)n(C)n(-c5ccccc5)c4=O)cc3F)ccnc2c1 | 178 | 
12 | COc1ccc2c(Oc3ccc(NC(=O)c4c(C)n(CC(C)(C)O)n(-c5ccccc5)c4=O)nc3)ccnc2c1 |  | IC50 [3]: 25000 nM; IC50 [4]: 100000 nM; IC50 [5]: 10 nM; IC50 [6]: 10000 nM; IC50 [7]: 100000 nM; IC50 [8]: 10 nM; Ki [8]: 1 nM; IC50 [9]: 100000 nM; IC50 [10]: 25000 nM; IC50 [11]: 100000 nM; IC50 [12]: 100000 nM; IC50 [13]: 100000 nM; IC50 [14]: 25000 nM; IC50 [15]: 25000 nM; IC50 [16]: 25000 nM; IC50 [17]: 10000 nM; IC50 [18]: 25000 nM; IC50 [19]: 25000 nM; IC50 [20]: 25000 nM
13 | COc1ccc2c(Oc3ccc(NC(=O)c4c(C5CCCO5)n(C)n(-c5ccccc5)c4=O)cc3F)ccnc2c1 (racemic) | 190 | 
14 | COc1ccc2c(Oc3ccc(NC(=O)c4c(C5CCOC5)n(C)n(-c5ccccc5)c4=O)cc3F)ccnc2c1 (racemic) | 250 | 

Now from value to compound, other results behind:

Row | Ki [1] [nM] | Structure (SMILES) | other results
15 | 557 | CCn1c(C)c(C(=O)Nc2ccc(Oc3ccnc4cc(OC)ccc34)c(F)c2)c(=O)n1-c1ccccc1 | 
16 | 249 | C=C(C)Cn1c(C)c(C(=O)Nc2ccc(Oc3ccnc4cc(OC)ccc34)c(F)c2)c(=O)n1-c1ccccc1 | 
17 | 864 | COc1ccc2c(Oc3ccc(NC(=O)c4c(C)n(CCO)n(-c5ccccc5)c4=O)cc3F)ccnc2c1 | 
18 | 637 | COc1ccc2c(Oc3ccc(NC(=O)c4c(C)n(CC(O)C(C)C)n(-c5ccccc5)c4=O)cc3F)ccnc2c1 (stereo unspecified) | 
19 | 104 | COc1ccc2c(Oc3ccc(NC(=O)c4c(C)n(CC(O)CN)n(-c5ccccc5)c4=O)cc3F)ccnc2c1 (stereo unspecified) | 
20 | 887 | COc1ccc2c(Oc3ccc(NC(=O)c4c(C)n(CC(C)(C)O)n(-c5ccccc5)c4=O)cc3F)ccnc2c1 | 
21 | 915 | COc1ccc2c(Oc3ccc(NC(=O)c4c(C)n(CC(C)C)n(-c5ccccc5)c4=O)cc3F)ccnc2c1 | 
22 | 419 | CCCn1c(C)c(C(=O)Nc2ccc(Oc3ccnc4cc(OC)ccc34)c(F)c2)c(=O)n1-c1ccccc1 | 
23 | 695 | COc1ccc2c(Oc3ccc(NC(=O)c4c(C)n(C[C@H](C)O)n(-c5ccccc5)c4=O)cc3F)ccnc2c1 | 
24 | 744 | COc1ccc2c(Oc3ccc(NC(=O)c4c(C)n(C[C@@H](C)O)n(-c5ccccc5)c4=O)cc3F)ccnc2c1 | 
25 | 1330 | COc1ccc2c(Oc3ccc(NC(=O)c4c(C)n(CC(C)O)n(-c5ccccc5)c4=O)cc3F)ccnc2c1 (racemic) | 
